Source: patent US11059795B2, “Androgen receptor modulators and methods for their use” (ESSA Pharma, Inc., priority 2018, dated 2021)

Tests used:
[1] = target: T1, LBD of estrogen receptor-α (ERα) fused to DBD of GAL4 (Homo sapiens, UniProt P03372); assay: LBD-expressing reporter assay (GeneBLAzer), ERα LBD; assay type: cell-based; conditions: inhibition of maximal activity attained with agonist; read-out: Steroid Receptor LBD IC50 (μM) ERα
T1 sequence (P03372 311-547 limits assumed): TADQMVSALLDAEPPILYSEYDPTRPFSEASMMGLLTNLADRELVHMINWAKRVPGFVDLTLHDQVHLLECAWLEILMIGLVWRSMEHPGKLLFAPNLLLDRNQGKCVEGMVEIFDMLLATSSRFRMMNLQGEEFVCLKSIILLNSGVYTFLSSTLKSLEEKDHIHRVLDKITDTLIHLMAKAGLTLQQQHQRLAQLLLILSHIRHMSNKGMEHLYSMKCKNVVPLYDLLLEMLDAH
Source text: (§1) This assay uses cells that stably express a chimera fusion protein comprising the LBD of a steroid hormone receptor fused to the DNA-binding domain (DBD) of GAL4 along with beta-lactamase reporter under transcriptional control of an upstream activator sequence (UAS). When agonist binds to the LBD of the GAL4 (DBD)-steroid hormone (LBD) chimera fusion protein, the protein binds to the UAS, resulting in expression of beta-lactamase. LBDs of androgen receptor (AR), progesterone receptor-beta (PRβ), glucocorticoid receptor (GR), estrogen receptor-α (ERα), and estrogen receptor-β (ERβ) were tested and IC50s calculated for inhibiting maximal activity attained with agonist.

[2] = target: T2, LBD of glucocorticoid receptor (GR) fused to DBD of GAL4 (Homo sapiens, UniProt P04150); assay: LBD-expressing reporter assay (GeneBLAzer), GR LBD; assay type: cell-based; conditions: inhibition of maximal activity attained with agonist; read-out: Steroid Receptor LBD IC50 (μM) GR
T2 sequence (P04150 524-758 limits assumed): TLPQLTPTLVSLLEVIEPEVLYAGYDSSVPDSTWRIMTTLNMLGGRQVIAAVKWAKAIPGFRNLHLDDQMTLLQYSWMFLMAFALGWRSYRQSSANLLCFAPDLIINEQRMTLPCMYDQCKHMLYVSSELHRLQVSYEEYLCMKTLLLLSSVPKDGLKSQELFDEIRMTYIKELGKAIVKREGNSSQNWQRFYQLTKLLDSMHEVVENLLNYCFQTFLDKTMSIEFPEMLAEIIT
Source text: as §1

[3] = Hepatocyte stability assay, human hepatocytes; assay type: in vitro ADME; conditions: cryopreserved hepatocytes, read-out: Hepatocytes T½ (min) Human
Source text: The […] of in vitro intrinsic clearance (Clint) for drug candidates in the early discovery stage is common practice in the pharmaceutical industry. The Clint values of drug candidates can help to confirm whether metabolism is the main clearance pathway when it is compared with the total body clearance in vivo. Hepatocytes are among the routinely used in vitro systems for measuring clearance. Hepatocytes have been reported to retain most of the phase I and phase II metabolic activities, and therefore, it is a useful tool to estimate the intrinsic clearance for potential drug candidates.
Metabolic stability of testing compound were be evaluated using human and mouse hepatocytes and can also be use rat, mouse, or other animal hepatocytes to predict intrinsic clearance. Cryopreserved hepatocytes were removed from the liquid nitrogen tank and thawed in a 37° C. water bath. As soon as the cells pulled away from the vial wall, they were decanted into 48 ml of warm HT medium. Cells were centrifuged for four minutes at 420 rpm (50 g). After removing the supernatant, pellet was re-suspended in warm DMEM medium. Cell density was counted by a hemacytometer.
The assay was carried out in 96-well microtiter plates. Compounds were incubated for 0, 60, 120, and 180 minutes at 37° C. with hepatocytes. Reaction mixtures (50 μL) contained a final concentration of 1 μM test compound, 0.5 million cells/mL hepatocytes in the DMEM medium. At each of the time points (for example, 0, 1, 2, and 3 hours), 200 μL of quench solution (100% acetonitrile with 0.1% formic acid) with internal standard was transferred to each well. Midazolam was included as a positive control to verify assay performance. Plates were sealed and centrifuged at 4° C. for 15 minutes at 4000 rpm. The supernatant is transferred to fresh plates for LC/MS/MS analysis.
Summarized conditions (customizable): [Compound]=[…], Positive control: midazolam and/or naloxone, [Hepatocyte]=0.5 million cells/Ml, time=0, 60, 120, and 180 min, t=37° C.
All samples were analyzed on LC/MS/MS using an AB Sciex API 4000 instrument, coupled to a Shimadzu LC-20AD LC Pump system. Analytical samples were separated using a Waters Atlantis T3 dC18 reverse phase HPLC column (20 mm×2.1 mm) at a flow rate of 0.5 mL/min. The mobile phase consisted of 0.1% formic acid in water (solvent A) and 0.1% formic acid in 100% acetonitrile (solvent B).
The extent of metabolism was calculated as the disappearance of the test compound, compared to the 0-min control reaction incubations. Initial rates were calculated for the compound concentration and used to determine t½ values and subsequently, the intrinsic clearance, Clint. Clint=(0.693)(1/t½(min))(mL incubation/million cells)

[4] = In vivo pharmacokinetics in plasma after oral gavage (PO) in male CD-1 mice; conditions: for Cmin at 5 mg/kg PO: Table 4; for bioavailability / AUC(0-t) / Cmax / Tmax / half-life: mouse; for half-life: read-out: t½ (converted)
[5] = plasma, single PO dose 5 mg/kg, male CD-1 mice, oral availability
[6] = single PO dose 5 mg/kg, male CD-1 mice, plasma

In the case of CC(C)(c1ccc(OCc2ocnc2S(C)(=O)=O)cc1)c1cc(Cl)c(OCCCl)c(Cl)c1 [Compound A13, 5-((4-(2-(3,5-dichloro-4-(2-chloroethoxy)phenyl)propan-2-yl)phenoxy)methyl)-4-(methylsulfonyl)oxazole], the IC50 [1] is reported as > 10 µM, the IC50 [2] is reported as > 10 µM and the half-life at 1 μM [3] is reported as 290 min. The “Cmin at 5 mg/kg PO” value [4] was 230 nM, the bioavailability [4, 5] was 85.8% and the AUC(0-t) [4, 6] was 8310 ng·h/mL. It also gave a Cmax [4, 6] of 1140 ng/mL, a Tmax [4, 6] of 1 h and a half-life [4, 6] of 8.3 h. The “AUC/D” value [4, 6] was 1661.9 kg·ng·h/mL/mg.
With CC(C)(c1ccc(OCc2ocnc2S(C)(=O)=O)cc1)c1cc(Cl)c(OCCCl)c(C#N)c1 [Compound A28, 3-chloro-2-(2-chloroethoxy)-5-(2-(4-((4-(methylsulfonyl)oxazol-5-yl)methoxy)phenyl)propan-2-yl)benzonitrile] the IC50 [1] was > 10 µM, the IC50 [2] was > 10 µM and the half-life at 1 μM [3] was > 360 min. The bioavailability [4, 5] was 50.3%, the AUC(0-t) [4, 6] was 8430 ng·h/mL and the Cmax [4, 6] was 2010 ng/mL. For the same molecule, the Tmax [4, 6] was 0.5 h, the half-life [4, 6] was 2.8 h and the “AUC/D” value [4, 6] was 1685.1 kg·ng·h/mL/mg.
In the case of CC(C)(c1ccc(OCc2coc(NS(C)(=O)=O)n2)cc1)c1cc(Cl)c(OCCCl)c(Cl)c1 [Compound A38, N-(4-((4-(2-(3,5-dichloro-4-(2-chloroethoxy)phenyl)propan-2-yl)phenoxy)methyl)oxazol-2-yl)methanesulfonamide], the IC50 [1] is reported as > 10 µM, the IC50 [2] is reported as > 10 µM and the half-life at 1 μM [3] is reported as > 360 min. It also gave a bioavailability [4, 5] of 86.4%, an AUC(0-t) [4, 6] of 12800 ng·h/mL and a Cmax [4, 6] of 1270 ng/mL. The Tmax [4, 6] was 3.3 h, the half-life [4, 6] was 4.9 h and the “AUC/D” value [4, 6] was 2561.0 kg·ng·h/mL/mg.
In the case of CC(C)(c1ccc(OCc2ccnc(NS(C)(=O)=O)n2)cc1)c1cc(Cl)c(OCCCl)c(Cl)c1 [Compound A74, N-(4-((4-(2-(3,5-dichloro-4-(2-chloroethoxy)phenyl)propan-2-yl)phenoxy)methyl)pyrimidin-2-yl)methanesulfonamide], the IC50 [1] is reported as > 10 µM, the IC50 [2] is reported as 9.51 µM and the half-life at 1 μM [3] is reported as > 360 min. The “Cmin at 5 mg/kg PO” value [4] was 2420 nM, the AUC(0-t) [4, 6] was 72700 ng·h/mL and the Cmax [4, 6] was 6310 ng/mL. For the same molecule, the Tmax [4, 6] was 2.7 h, the “AUC/D” value [4, 6] was 14542.3 kg·ng·h/mL/mg and the “t½” value [4, 6] was 12.5 h. For the same molecule, the “F (%)” value ([4]; single PO dose 5 mg/kg, male CD-1 mice, oral availability) was 71.9%.
In the case of CC(C)(c1ccc(OCc2ncc(S(C)(=O)=O)s2)cc1)c1cc(Cl)c(OCCCl)c(C#N)c1 [Compound A93, 3-chloro-2-(2-chloroethoxy)-5-(2-(4-((5-(methylsulfonyl)thiazol-2-yl)methoxy)phenyl)propan-2-yl)benzonitrile], the IC50 [1] is reported as > 10 µM, the IC50 [2] is reported as > 10 µM and the half-life at 1 μM [3] is reported as > 360 min. It also gave a bioavailability [4, 5] of 62.8%, an AUC(0-t) [4, 6] of 32900 ng·h/mL and a Cmax [4, 6] of 2970 ng/mL. The Tmax [4, 6] was 0.8 h, the half-life [4, 6] was 17.1 h and the “AUC/D” value [4, 6] was 6575.7 kg·ng·h/mL/mg.
In the case of CC(C)(c1ccc(OCc2ccnc(NS(C)(=O)=O)n2)cc1)c1cc(Cl)c(OCCCl)c(C#N)c1 [Compound A109, N-(4-((4-(2-(3-chloro-4-(2-chloroethoxy)-5-cyanophenyl)propan-2-yl)phenoxy)methyl)pyrimidin-2-yl)methanesulfonamide], the IC50 [1] is reported as > 10 µM, the IC50 [2] is reported as > 10 µM and the half-life at 1 μM [3] is reported as > 360 min. For the same molecule, the “Cmin at 5 mg/kg PO” value [4] was 680 nM, the bioavailability [4, 5] was 33.6% and the AUC(0-t) [4, 6] was 30700 ng·h/mL. It also gave a Cmax [4, 6] of 2670 ng/mL, a Tmax [4, 6] of 2.2 h and a half-life [4, 6] of 8.1 h. For the same molecule, the “AUC/D” value [4, 6] was 6143.0 kg·ng·h/mL/mg.
For CC(C)(c1ccc(OC[C@H](O)CNS(C)(=O)=O)cc1)c1cc(Cl)c(OC[C@H](O)CCl)c(Cl)c1 [X, reference compound], the IC50 [1] was 5.82 µM, the IC50 [2] was > 10 µM and the half-life at 1 μM [3] was > 360 min.
